“And” between values parts separate entries of the source, which are not always exact repeats. Equal entries are not always repeated. Blank lines part the entries; values can stand above or below the compound they belong to.
Tested on: 496974-208-R-J2-PDC complex spheroids, growth % test/control
Assay: Anticancer human tumor 496974-208-R-J2-PDC patient-derived pancreatic carcinoma cell line growth inhibition [CLK]
Conditions: for viability, T/C: stronger effect = lower value
Description: A high-throughput screen of multi-cell type tumor spheroids was designed to identify active combinations of […] and targeted small molecules. Complex spheroids include a stromal component modeled by human endothelial cells (HUVEC) and fibroblasts modeled by human mesenchymal stem cells (MSCs). The concentration ranges selected for each drug and investigational agent were based upon clinically achievable concentrations if the clinical Cmax of the agent was known.
Compounds. The drugs and investigational agents: cirtuvivint (SM08502; NSC835563), CC-671 (NSC850746), vemurafenib (NSC761431), tapotoclax (NSC804041), sotorasib (NSC818433), adagrasib (NSC831453), MRTX-1133 (NSC836407), BAY2416964 (NSC825713), copanlisib (NSC816437), inavolisib (NSC800729), abemaciclib (NSC768073), osimertinib (NSC779217), entinostat (NSC756642), eltanexor (KPT-8602, NSC794443), venetoclax (NSC766270), ceralasertib (NSC777638), bortezomib (NSC756655), olaparib (NSC753686), talazoparib (NSC767125), alisertib (NSC759677), peposertib (NSC802822), gemcitabine (NSC613327), 5-fluorouracil (NSC19893), SN-38 (NSC673596), oxaliplatin (NSC266046), paclitaxel (NSC125973), and doxorubicin (NSC123127), were obtained from the National Cancer Institute (NCI) Developmental Therapeutics Program Chemical Repository. The FDA-approved anticancer drug set is available from the Developmental Therapeutics Program at https://dtp.cancer.gov/organization/dscb/obtaining/available plates.htm. […] The stock solutions were prepared in dimethyl sulfoxide (DMSO, Sigma-Aldrich, St. Louis, MO, cat. D2650), except for the platinum complexes which were prepared in saline (Quality Biological, Gaithersburg, MD, cat. 114-055-101), at 800-fold the tested concentration and stored at -70 degrees C prior to their use. All drugs and investigational agents were tested over a range starting from a high concentration at or near the clinical Cmax and decreasing in half-log increments. If the clinical Cmax for an agent had not been determined, the highest concentration tested was 10 microM.
Cell Culture. All cells were maintained in an incubator at 37 degrees C and 5% CO2 with 95% humidity. The PDC lines were cultured according to standard operating procedures established by the NCI PDMR. Briefly, all PDCs were thawed and cultured in Matrigel-coated flasks prepared with a working solution of 1X Ham's F-12 nutrient mix, without supplementation (Invitrogen, Waltham, MA, cat. 11765054), 100 U/mL penicillin-streptomycin (Invitrogen, cat. 15140122), and 2.5% Matrigel (Corning Inc., Corning, NY, cat. 354248) for the first three passages. The 947758-054-R-J2-PDC line was cultured in 6B/Colon 1A media, which includes advanced DMEM/F-12 (Thermo Fisher Scientific, cat. 12634028), 10 mM HEPES (Thermo Fisher Scientific, cat. 15630080), 1X GlutaMAX supplement (Thermo Fisher Scientific, cat. 35050061), 0.1 mg/mL primocin (InvivoGen, cat. ant-pm-2), 10% defined fetal bovine serum, heat inactivated (HyClone Laboratories Inc., cat. SH30070.03HI), 1.25 mM N-Acetyl-L-cysteine (Sigma-Aldrich, cat. A9165), 10 mM nicotinamide (Sigma-Aldrich, cat. N0636), 1X B-27 supplement (Thermo Fisher Scientific, cat. 17504044), 1X N-2 supplement (Thermo Fisher Scientific, cat. 17502048), and 10 microM Y-27632 dihydrochloride (Tocris Bioscience, cat. 1254). The 876862-298-R-J1-PDC was cultured in 6E media, which includes all 6B/Colon 1A media components plus 50% L-WRN conditioned media (ATCC, cat. CRL-3276), 50 ng/mL recombinant human EGF recombinant protein (hEGF; Thermo Fisher Scientific, cat. PHG0311), 10 ng/mL recombinant human fibroblast growth factor 10 (hGFG-10; PeproTech, cat. 100-26), 1 ng/mL recombinant human fibroblast growth factor 2 (hFGF-2; PeproTech, cat. 100-18B), and 1 µM prostaglandin E2 (PGE2; Tocris, cat. 2296). The 227483-062-R1-J1-PDC line was cultured in Panc media, containing all 6E components except hFGF-2, with the addition of 500 nM SB-431542 (Selleckchem, cat. S1067) and 10 nM gastrin (Tocris, cat. 3006). […]

[1] = curve of first compound, second compound 0.0316 µM
[2] = curve of first compound, second compound 0.1 µM
[3] = curve of first compound, second compound 0.316 µM
[4] = curve of first compound, second compound 1 µM
[5] = curve of first compound, second compound 3.16 µM
[6] = curve of first compound, second compound 10 µM
[7] = second compound 0.0316 µM, first compound 0.00316 µM
[8] = second compound 0.0316 µM, first compound 0.01 µM
[9] = second compound 0.0316 µM, first compound 0.0316 µM
[10] = second compound 0.0316 µM, first compound 0.1 µM
[11] = second compound 0.0316 µM, first compound 0.316 µM
[12] = second compound 0.0316 µM, first compound 1 µM
[13] = second compound 0.1 µM, first compound 0.00316 µM
[14] = second compound 0.1 µM, first compound 0.01 µM
[15] = second compound 0.1 µM, first compound 0.0316 µM
[16] = second compound 0.1 µM, first compound 0.1 µM
[17] = second compound 0.1 µM, first compound 0.316 µM
[18] = second compound 0.1 µM, first compound 1 µM
[19] = second compound 0.316 µM, first compound 0.00316 µM
[20] = second compound 0.316 µM, first compound 0.01 µM
[21] = second compound 0.316 µM, first compound 0.0316 µM
[22] = second compound 0.316 µM, first compound 0.1 µM
[23] = second compound 0.316 µM, first compound 0.316 µM
[24] = second compound 0.316 µM, first compound 1 µM
[25] = second compound 1 µM, first compound 0.00316 µM
[26] = second compound 1 µM, first compound 0.01 µM
[27] = second compound 1 µM, first compound 0.0316 µM
[28] = second compound 1 µM, first compound 0.1 µM
[29] = second compound 1 µM, first compound 0.316 µM
[30] = second compound 1 µM, first compound 1 µM
[31] = second compound 3.16 µM, first compound 0.00316 µM
[32] = second compound 3.16 µM, first compound 0.01 µM
[33] = second compound 3.16 µM, first compound 0.0316 µM
[34] = second compound 3.16 µM, first compound 0.1 µM
[35] = second compound 3.16 µM, first compound 0.316 µM
[36] = second compound 3.16 µM, first compound 1 µM
[37] = second compound 10 µM, first compound 0.00316 µM
[38] = second compound 10 µM, first compound 0.01 µM
[39] = second compound 10 µM, first compound 0.0316 µM
[40] = second compound 10 µM, first compound 0.1 µM
[41] = second compound 10 µM, first compound 0.316 µM
[42] = second compound 10 µM, first compound 1 µM
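Also: spheroids exposed to the drugs for 7 days before readout.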
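For viability, T/C in this document: 100% = DMSO vehicle control wells.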

IC50 (curve of compound): > 100 nM
SMILES: Cn1ncnc1[C@H]1c2n[nH]c(=O)c3cc(F)cc(c23)N[C@@H]1c1ccc(F)cc1
viability, T/C (compound 0.000316 µM): 109% and 106%
viability, T/C (compound 0.001 µM): 103% and 99.5%
viability, T/C (compound 0.00316 µM): 90.4% and 101%
viability, T/C (compound 0.01 µM): 95.2% and 99.5%
viability, T/C (compound 0.0316 µM): 93.3% and 95.1%
viability, T/C (compound 0.1 µM): 86% and 104%

IC50 [1]: 17.4 nM
IC50 [2]: 16.2 nM
IC50 [3]: 11.1 nM
IC50 [4]: 7.96 nM
IC50 [5]: 4.74 nM
IC50 [6]: 3.25 nM
SMILES: COc1c(OCCCN2CCOCC2)ccc2c3n(c(=NC(=O)c4cnc(N)nc4)nc12)CCN3 + CNC(=O)c1ccc(Nc2nc(OC3CCCC3)c3c(-c4ccc5nc(C)oc5c4)c[nH]c3n2)c(OC)c1
viability, T/C [7]: 88.2%
viability, T/C [8]: 68.6%
viability, T/C [9]: 29.4%
viability, T/C [10]: 14.5%
viability, T/C [11]: 9.14%
viability, T/C [12]: 4.1%
viability, T/C [13]: 76.9%
viability, T/C [14]: 64.2%
viability, T/C [15]: 30.2%
viability, T/C [16]: 16.1%
viability, T/C [17]: 12.5%
viability, T/C [18]: 7.78%
viability, T/C [19]: 70.3%
viability, T/C [20]: 53.4%
viability, T/C [21]: 24.8%
viability, T/C [22]: 15.1%
viability, T/C [23]: 11.2%
viability, T/C [24]: 5.48%
viability, T/C [25]: 61.2%
viability, T/C [26]: 47.7%
viability, T/C [27]: 27.5%
viability, T/C [28]: 14%
viability, T/C [29]: 12.3%
viability, T/C [30]: 5.46%
viability, T/C [31]: 54.4%
viability, T/C [32]: 42%
viability, T/C [33]: 26.1%
viability, T/C [34]: 16.1%
viability, T/C [35]: 8.87%
viability, T/C [36]: 6.58%
viability, T/C [37]: 50%
viability, T/C [38]: 37.7%
viability, T/C [39]: 21.9%
viability, T/C [40]: 12.4%
viability, T/C [41]: 9.58%
viability, T/C [42]: 3.59%

IC50 [1]: > 10000 nM
IC50 [2]: 6650 nM
IC50 [3]: 6970 nM
IC50 [4]: 3290 nM
IC50 [5]: 5160 nM
IC50 [6]: 4140 nM
SMILES: CC(CO)NC(=O)c1cc(-c2ccc(Cl)cc2)nn(-c2cnn(C)c2)c1=O (stereo not drawn) + CNC(=O)c1ccc(Nc2nc(OC3CCCC3)c3c(-c4ccc5nc(C)oc5c4)c[nH]c3n2)c(OC)c1
viability, T/C [9]: 103%
viability, T/C [10]: 91.4%
viability, T/C [11]: 92.8%
viability, T/C [12]: 90.4%
viability, T/C (second compound 0.0316 µM, first compound 3.16 µM): 89.1%
viability, T/C (second compound 0.0316 µM, first compound 10 µM): 55%
viability, T/C [15]: 87.3%
viability, T/C [16]: 74.5%
viability, T/C [17]: 80.8%
viability, T/C [18]: 63.1%
viability, T/C (second compound 0.1 µM, first compound 3.16 µM): 65.4%
viability, T/C (second compound 0.1 µM, first compound 10 µM): 42.6%
viability, T/C [21]: 79.2%
viability, T/C [22]: 67.3%
viability, T/C [23]: 72.6%
viability, T/C [24]: 69%
viability, T/C (second compound 0.316 µM, first compound 3.16 µM): 59.4%
viability, T/C (second compound 0.316 µM, first compound 10 µM): 44.9%
viability, T/C [27]: 71%
viability, T/C [28]: 71.8%
viability, T/C [29]: 63.5%
viability, T/C [30]: 59.7%
viability, T/C (second compound 1 µM, first compound 3.16 µM): 50.9%
viability, T/C (second compound 1 µM, first compound 10 µM): 37.9%
viability, T/C [33]: 62.4%
viability, T/C [34]: 57.9%
viability, T/C [35]: 52%
viability, T/C [36]: 58.4%
viability, T/C (second compound 3.16 µM, first compound 3.16 µM): 56.6%
viability, T/C (second compound 3.16 µM, first compound 10 µM): 41.1%
viability, T/C [39]: 55.5%
viability, T/C [40]: 54.8%
viability, T/C [41]: 49.8%
viability, T/C [42]: 47.1%
viability, T/C (second compound 10 µM, first compound 3.16 µM): 56.5%
viability, T/C (second compound 10 µM, first compound 10 µM): 41%

SMILES: CCc1c2c(nc3ccc(O)cc13)-c1cc3c(c(=O)n1C2)COC(=O)[C@]3(O)CC + CN1CCN(c2cc(C(=O)Nc3cc4cc(-c5cnn(C)c5)ccc4cn3)ccn2)CC1
IC50 [1]: 7.79 nM
IC50 [2]: < 3.16 nM
IC50 [3]: < 3.16 nM
IC50 [4]: < 3.16 nM
IC50 [5]: < 3.16 nM
IC50 [6]: < 3.16 nM
viability, T/C [7]: 62.2%
viability, T/C [8]: 47.5%
viability, T/C [9]: 26.7%
viability, T/C [10]: 14.5%
viability, T/C [11]: 6.46%
viability, T/C [12]: 1.65%
viability, T/C [13]: 49.3%
viability, T/C [14]: 38.7%
viability, T/C [15]: 23.3%
viability, T/C [16]: 10.7%
viability, T/C [17]: 3.35%
viability, T/C [18]: 0.91%
viability, T/C [19]: 6.81%
viability, T/C [20]: 5.74%
viability, T/C [21]: 3.64%
viability, T/C [22]: 2%
viability, T/C [23]: 0.48%
viability, T/C [24]: 1.92%
viability, T/C [25]: 0.35%
viability, T/C [26]: 0.69%
viability, T/C [27]: 3.07%
viability, T/C [28]: 0.44%
viability, T/C [29]: 0.26%
viability, T/C [30]: 1.23%
viability, T/C [31]: 0.46%
viability, T/C [32]: 0.62%
viability, T/C [33]: 1.9%
viability, T/C [34]: 0.34%
viability, T/C [35]: 0.73%
viability, T/C [36]: 0.29%
viability, T/C [37]: 0.14%
viability, T/C [38]: 0.25%
viability, T/C [39]: 1.21%
viability, T/C [40]: 0.21%
viability, T/C [41]: 0.65%
viability, T/C [42]: 3.41%
